Among the test systems are UO-31; NCI-H522; HL-60; SK-OV-3; PC-3; UACC-257; COLO 205; A498; HCT-116; IGROV-1; OVCAR-4; HT-29; OVCAR-8; NCI-H23; ACHN; HCT-15; SK-MEL-28; HOP-62; Malme-3M; HCC 2998.
Test in all cases: DTP human tumour cell line panel, 48 h

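The compound was tested at five concentrations on cells cultured in 96-well plates, with a 48-hour exposure period. GI50 marks 50% less growth.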 Calls of active or inactive are those of the source. Rule as the data show it: active = GI50 up to about 1.1 µM and inactive = higher. Where only a bound is given, the exact number is not on record here.

The term GI50 denotes the concentration at which growth is held to half of that of the control. Turning to `CCOC1Oc2ccccc2-c2nc(N)ncc21` (configuration not stated), the GI50 in the assay on UO-31 is 43.5 µM (inactive); in the assay with NCI-H522 it was 23.4 µM (inactive); with HL-60, 20.8 µM (inactive); in the assay with SK-OV-3, > 100 µM (inactive); in the assay with PC-3, 41.5 µM (inactive); with UACC-257, 55.2 µM (inactive). For the same compound, the GI50 in the assay with COLO 205 was 57.5 µM (inactive); with A498, 22.7 µM (inactive); in the assay with HCT-116, 36.5 µM (inactive); in the assay on IGROV-1, 43.6 µM (inactive); in the assay with OVCAR-4, > 100 µM (inactive); in the assay with HT-29, 34.8 µM (inactive). For the same compound, the GI50 in the assay with OVCAR-8 is 61.9 µM (inactive); in the assay with NCI-H23, > 100 µM (inactive); in the assay with ACHN, 59.4 µM (inactive); in the assay with HCT-15, 14 µM.
Regarding `NNC(=O)Cn1c2ccc(Br)cc2c2nc3ccccc3nc21`, the GI50 with UO-31 is 19.9 µM (inactive); in the assay on SK-OV-3 it was 43.7 µM (inactive); in the assay on PC-3, > 100 µM (inactive); with UACC-257 it was 76.4 µM (inactive); with COLO 205 it was > 100 µM (inactive); in the assay with A498, 47.1 µM (inactive). Moreover, the GI50 with SK-MEL-28 is 47.8 µM (inactive); in the assay with IGROV-1, 31 µM (inactive); with HOP-62 it was 19.8 µM (inactive); in the assay on HT-29, > 100 µM (inactive); in the assay on OVCAR-8, 54.3 µM (inactive); in the assay on NCI-H23, 20.4 µM (inactive). The GI50 in the assay on ACHN was 36.6 µM (inactive).
In the case of `COc1cc([N+](=O)[O-])c(OC)c2c(Nc3ccc(S(=O)(=O)O)c4cc(S(=O)(=O)O)cc(S(=O)(=O)O)c34)cc(C)nc12`, the GI50 in the assay with UO-31, in the assay with NCI-H522, in the assay with HL-60, in the assay on SK-OV-3, in the assay with PC-3 and in the assay on UACC-257 was > 100 µM (inactive) in each case. Also, the GI50 in the assay on COLO 205, in the assay with Malme-3M, in the assay with A498, in the assay on HCT-116, in the assay with SK-MEL-28 and in the assay with IGROV-1 was > 100 µM (inactive) throughout. The GI50 in the assay with HOP-62, in the assay with HT-29, in the assay on OVCAR-8 and in the assay on NCI-H23 was > 100 µM (inactive) each time.
With `N#Cc1c2c(c(N)oc1=O)C(c1ccccc1)CC(=O)N2` (configuration not stated), the GI50 in the assay with UO-31, with NCI-H522, in the assay with HL-60, in the assay with SK-OV-3, in the assay on PC-3 and with UACC-257 was > 100 µM (inactive) throughout. For the same compound, the GI50 in the assay with COLO 205, in the assay on HCC 2998, in the assay on Malme-3M, in the assay on HCT-116, with SK-MEL-28 and with IGROV-1 was > 100 µM (inactive) in each case. The GI50 in the assay on OVCAR-4, in the assay with HOP-62, in the assay with HT-29, in the assay on OVCAR-8, in the assay on NCI-H23 and in the assay on ACHN was > 100 µM (inactive) each time. This compound gave a GI50 in the assay on HCT-15 of over 100 µM.
Consider `CN(C)NC(=S)Nc1ccccc1Br`, for which the GI50 in the assay on UO-31, with NCI-H522, with HL-60, with SK-OV-3, in the assay on PC-3 and with UACC-257 was > 100 µM (inactive) in each case. The GI50 in the assay on COLO 205, in the assay with Malme-3M, with A498, in the assay with HCT-116, with SK-MEL-28 and with IGROV-1 was > 100 µM (inactive) throughout. Also, the GI50 in the assay on OVCAR-4 was > 100 µM (inactive); in the assay on HT-29, > 100 µM (inactive); in the assay with OVCAR-8, > 100 µM (inactive); with NCI-H23, > 100 µM (inactive); with ACHN, > 100 µM (inactive); in the assay on HCT-15, over 100 µM.
As for `O=C(O)C1[C@@H](C(=O)O)C1(Br)CBr` (some centres not stated), the GI50 with UO-31, in the assay with NCI-H522, in the assay with HL-60, in the assay on SK-OV-3, in the assay on PC-3 and with UACC-257 was > 100 µM (inactive) in each case. For the same compound, the GI50 in the assay with COLO 205, with HCC 2998, with A498, with HCT-116, in the assay with SK-MEL-28 and in the assay with IGROV-1 was > 100 µM (inactive) in each case. For the same compound, the GI50 with OVCAR-4, in the assay on HOP-62, with HT-29, in the assay with OVCAR-8, in the assay with NCI-H23 and in the assay on ACHN was > 100 µM (inactive) throughout. In the assay on HCT-15, this compound had a GI50 of over 100 µM.
Regarding `COc1ccc2c3c1O[C@H]1C(O)CCC4(O)[C@@H](C2)NCC[C@]314` (some centres not stated), the GI50 in the assay with UO-31, in the assay on NCI-H522, in the assay on HL-60, in the assay with SK-OV-3, with PC-3 and in the assay on UACC-257 was > 100 µM (inactive) throughout. The GI50 in the assay with COLO 205, in the assay on Malme-3M, with A498, in the assay with HCT-116, in the assay with SK-MEL-28 and with IGROV-1 was > 100 µM (inactive) each time. Also, the GI50 in the assay with OVCAR-4, with HOP-62, in the assay with HT-29, in the assay on OVCAR-8, in the assay on NCI-H23 and in the assay on ACHN was > 100 µM (inactive) throughout. The compound also displayed a GI50 in the assay with HCT-15 of over 100 µM.
As to `Cc1ccc2c(=O)c(C(=O)NNC(=S)NC3CCCCC3)c[nH]c2n1`, the GI50 was > 100 µM (inactive) in the assay on UO-31; 51.6 µM (inactive) in the assay on NCI-H522; 46.9 µM (inactive) with HL-60; 45.4 µM (inactive) in the assay on PC-3; > 100 µM (inactive) in the assay with UACC-257; 64.6 µM (inactive) in the assay with COLO 205. Besides, the GI50 was 65.8 µM (inactive) in the assay on Malme-3M; > 100 µM (inactive) in the assay with A498; 99.5 µM (inactive) in the assay with HCT-116; 77.8 µM (inactive) in the assay with SK-MEL-28; 35.6 µM (inactive) with IGROV-1; 78.9 µM (inactive) with OVCAR-4. Besides, the GI50 with HOP-62 was 68.1 µM (inactive); in the assay on HT-29, 53.1 µM (inactive); in the assay on OVCAR-8, > 100 µM (inactive); with NCI-H23, 94.8 µM (inactive); in the assay with ACHN, 96.4 µM (inactive); with HCT-15 it was over 100 µM.
As to `O=C1NC(c2c(Cl)cccc2Cl)Nc2ccccc21` (configuration not stated), the GI50 was > 100 µM (inactive) with UO-31; 25.9 µM (inactive) in the assay on NCI-H522; 18 µM (inactive) with HL-60; > 100 µM (inactive) in the assay on SK-OV-3; 71.1 µM (inactive) in the assay with PC-3; > 100 µM (inactive) in the assay with UACC-257. The GI50 in the assay with COLO 205 was 49.4 µM (inactive); with Malme-3M, 24.8 µM (inactive); in the assay with A498, 85.7 µM (inactive); with HCT-116, 25.4 µM (inactive); in the assay on SK-MEL-28 it was 73.3 µM (inactive); in the assay with IGROV-1, 21.2 µM (inactive). Moreover, the GI50 is > 100 µM (inactive) in the assay with OVCAR-4; 81.7 µM (inactive) in the assay with HOP-62; 28.1 µM (inactive) with HT-29; 47.1 µM (inactive) in the assay with OVCAR-8; > 100 µM (inactive) in the assay on ACHN; 49.7 µM with HCT-15.
With `COc1ccccc1Cn1c2c(c3cc(O)ccc31)C(=O)c1ccccc1C2=O`, the GI50 with UO-31 was 48 µM (inactive); with HL-60 it was > 100 µM (inactive); with SK-OV-3 it was 2.42 µM (inactive); in the assay with PC-3 it was 8.49 µM (inactive); in the assay on UACC-257 it was > 100 µM (inactive); in the assay on COLO 205, 61.9 µM (inactive). The GI50 in the assay with Malme-3M was > 100 µM (inactive); in the assay on A498 it was 93.8 µM (inactive); with HCT-116, 23.8 µM (inactive); with SK-MEL-28, 76.4 µM (inactive); in the assay on IGROV-1, 16.6 µM (inactive); with OVCAR-4, 3.21 µM (inactive). Also, the GI50 in the assay with HOP-62 is 16.1 µM (inactive); with HT-29, > 100 µM (inactive); with OVCAR-8, 11.7 µM (inactive); in the assay with NCI-H23, 20 µM (inactive); in the assay on HCT-15 it was 90.2 µM.
As for `COc1cc(/C=C2\CCC(C)C3=C2NC(=S)NC3c2cc(OC)c(OC)c(OC)c2)cc(OC)c1OC` (configuration not stated), the GI50 in the assay on UO-31 is 15.8 µM (inactive); in the assay with HL-60, 12.5 µM (inactive); in the assay on SK-OV-3, > 100 µM (inactive); with PC-3, 37.7 µM (inactive); in the assay with UACC-257, 53.8 µM (inactive); with A498, 53 µM (inactive). Moreover, the GI50 with HCT-116 is 49 µM (inactive); in the assay on SK-MEL-28, 30.4 µM (inactive); in the assay on IGROV-1, 40.3 µM (inactive); with OVCAR-4 it was 69 µM (inactive); with HOP-62, 70.6 µM (inactive); with HT-29, 60.1 µM (inactive). The GI50 in the assay with OVCAR-8 was 54 µM (inactive); in the assay with ACHN it was 92.7 µM (inactive); in the assay with HCT-15, 47.4 µM.
For `COc1ccc(-c2nc3ccccc3c(=S)n2OC(C)=O)cc1`, the GI50 is 1.91 µM (inactive) in the assay on UO-31; 1.04 µM (active) with HL-60; 5.71 µM (inactive) in the assay with SK-OV-3; 1.29 µM (inactive) with PC-3; 13.1 µM (inactive) in the assay with UACC-257; 2.38 µM (inactive) with COLO 205. Also, the GI50 is > 25 µM (inactive) in the assay on HCC 2998; 4.76 µM (inactive) in the assay with Malme-3M; 23.9 µM (inactive) in the assay on A498; 1.91 µM (inactive) with HCT-116; 6.5 µM (inactive) with SK-MEL-28; 0.143 µM (active) in the assay on IGROV-1. Further, the GI50 with OVCAR-4 was 8.32 µM (inactive); in the assay with HOP-62, 4.76 µM (inactive); in the assay on HT-29 it was 2.55 µM (inactive); in the assay on OVCAR-8, 3.1 µM (inactive); in the assay with NCI-H23, 1.95 µM (inactive); in the assay on ACHN, 2.99 µM (inactive). This compound gave a 50% growth inhibitory concentration (GI50) in the assay on HCT-15 of 0.755 µM.
